Structures can show the parent of a compound that is named as a salt. Where two headings read alike, the source gives them in different places.
Columns and labels:
MTT cytotoxicity assay = assay type: cell-based; settings: 3T3 mouse fibroblast cells, 48 h, test compounds 1 to 30 µM, NC: non-cytotoxic; for viability at 48 h: read-out: Cytotoxicity Studies Cell Viability (%)
Method: Cytotoxicity of active compounds were evaluated employing a standard MTT calorimetric assay. Mouse fibroblast (3T3 cell line) acquired from American Type Culture Collection (ATCC), Virginia, USA, was cultured in DMEM (Dulbecco’s modified eagle medium). In total, 5% FBS (fetal bovine serum), penicillin (100 IU/mL), and streptomycin ([…]) were then added to the medium in […] flasks, and kept in a CO2 incubator at 37 °C. The harvested cell was then diluted with a specific medium. Haemocytometer was used for the quantification of cells. After that, the culture of cell having concentration of 5x104 (cells/mL) was prepared, inoculated into 96-well plates (100 µL/well), and then incubated overnight. After incubation, the old medium was removed, and fresh medium (200 µL) was added. Then different concentrations of test compounds (ranging from 1 to 30 µM) were added. After incubation of 48 h, each well received 200 µL of MTT dye (0.5 mg/mL), and further incubated for a duration of 4 h. After 4 h, 100 µL of DMSO was introduced into each well of the 96-well plate. The reduction of MTT to formazan was measured by recording absorbance at 540 nm with the help of a microplate reader (SpectraMax 384, Molecular Devices, San Jose, CA, USA).

[1] = biological target: T1, Thymidine phosphorylase (TP) (Escherichia coli, UniProt P07650); assay: Thymidine phosphorylase inhibition assay (spectrophotometric, 290 nm); assay type: biochemical, E. coli; settings: for IC50 / Thymidine Phosphorylase Inhibitory Activity % Inhibition / TP inhibitory activity (in words): E. coli TP; for IC50: n = 3, NA: not active, read-out: Thymidine Phosphorylase Inhibitory Activity IC50 ± SEM; for inhibition at 500 µM / Thymidine Phosphorylase Inhibitory Activity % Inhibition: test compound 10 µL of 0.5 mM in 200 µL, thymidine substrate, 30 °C, pH 7.0; for TP inhibitory activity (in words): inactive = less than 50% inhibition
T1 construct: purchased Sigma Aldrich, USA
Method: Thymidine phosphorylase (source: E. coli, EC Number 2.4.2.4), thymidine (substrate), and potassium phosphate monobasic (as buffer) were acquired from Sigma Aldrich, USA. […] Dimethylsulfoxide (DMSO), used as a solvent, was obtained from Fisher Scientific, Schwerte, Germany.
Reaction was performed in 96-well plates and in triplicates. The 200 µL reaction mixture was comprised of 10 µL of the test compound (0.5 mM; dissolved in DMSO), 150 µL of potassium phosphate buffer (pH 7.0, 50 mM), and 20 µL of TP enzyme (0.058 unit/well). The 96-well plate containing all these reagents was then incubated at 30 °C for 10 min.
SoftMax Pro 4.8 software (Molecular Devices, San Jose, CA, USA) was used to analyse the results.
EZ-FIT, enzyme kinetics software (Perrella Scientific, Inc., Amherst, GA, USA) was used to calculate the IC50 values. In order to analyse the kinetic parameter, Grafit version 7.0 (Erithacus Software Ltd., Horley, UK) was used.

[2] = pH 7, E. coli TP, read-out: Thymidine Phosphorylase Inhibitory Activity % Inhibition

T1 sequence (P07650 whole entry): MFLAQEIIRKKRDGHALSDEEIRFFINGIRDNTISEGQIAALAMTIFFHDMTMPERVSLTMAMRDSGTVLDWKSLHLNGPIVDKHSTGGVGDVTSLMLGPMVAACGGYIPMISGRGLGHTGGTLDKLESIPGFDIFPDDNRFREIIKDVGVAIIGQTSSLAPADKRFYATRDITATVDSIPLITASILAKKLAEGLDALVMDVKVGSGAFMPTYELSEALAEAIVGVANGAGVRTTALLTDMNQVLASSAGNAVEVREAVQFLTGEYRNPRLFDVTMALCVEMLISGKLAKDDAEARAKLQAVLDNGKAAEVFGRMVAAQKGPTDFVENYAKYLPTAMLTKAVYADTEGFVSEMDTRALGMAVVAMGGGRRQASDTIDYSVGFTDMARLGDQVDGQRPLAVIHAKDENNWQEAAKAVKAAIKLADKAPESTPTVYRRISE

Compound	viability at 48 h (MTT cytotoxicity assay) [%]	IC50 [1] [µM]	inhibition at 500 µM [1, 2] [%]	other results
CCOc1ccc(C2NC(=O)NC(C)=C2C(=O)OC)cc1 (centres unmarked) [Compound 2, Methyl 4-(4-ethoxyphenyl)-6-methyl-2-oxo-1,2,3,4-tetrahydropyrimidine-5-carboxylate]	67	389 ± 6.2	78.2	–
COC(=O)C1=C(C)NC(=O)NC1c1ccc2ccccc2c1 (centres unmarked) [Compound 3, Methyl 6-methyl-4-(naphthalen-2-yl)-2-oxo-1,2,3,4-tetrahydropyrimidine-5-carboxylate]	–	–	–	Thymidine Phosphorylase Inhibitory Activity % Inhibition [1]: 38.1%
CCC1NC(=O)NC(C)=C1C(=O)OC (centres unmarked) [Compound 4, Methyl 4-ethyl-6-methyl-2-oxo-1,2,3,4-tetrahydropyrimidine-5-carboxylate]	–	–	46.8	–
COC(=O)C1=C(C)NC(=O)NC1c1ccc(OC)cc1 (centres unmarked) [Compound 5, Methyl 4-(4-methoxyphenyl)-6-methyl-2-oxo-1,2,3,4-tetrahydropyrimidine-5-carboxylate]	72	387.4 ± 2	52.9	–
COC(=O)C1=C(C)NC(=O)NC1c1ccccc1Cl (centres unmarked) [Compound 6, Methyl 4-(2-chlorophenyl)-6-methyl-2-oxo-1,2,3,4-tetrahydropyrimidine-5-carboxylate]	–	–	-65.3	TP inhibitory activity (in words) [1]: inactive
COC(=O)C1=C(C)NC(=O)NC1c1ccccc1OC (centres unmarked) [Compound 7, Methyl 4-(2-methoxyphenyl)-6-methyl-2-oxo-1,2,3,4-tetrahydropyrimidine-5-carboxylate]	–	–	-19.3	–
COC(=O)C1=C(C)NC(=O)NC1c1ccc2ccccc2c1 (centres unmarked) [Compound 8, Methyl 6-methyl-4-(naphthalen-2-yl)-2-oxo-1,2,3,4-tetrahydropyrimidine-5-carboxylate]	–	–	–	Thymidine Phosphorylase Inhibitory Activity % Inhibition [1]: −10.3%
COC(=O)C1=C(C)NC(=O)NC1c1ccco1 (centres unmarked) [Compound 9, Methyl 4-(furan-2-yl)-6-methyl-2-oxo-1,2,3,4-tetrahydropyrimidine-5-carboxylate]	72	373.6 ± 2.2	78.9	–
CCCCC1NC(=O)NC(C)=C1C(=O)OC (centres unmarked) [Compound 10, Methyl 4-butyl-6-methyl-2-oxo-1,2,3,4-tetrahydropyrimidine-5-carboxylate]	66	389 ± 0.6	92.7	–
COC(=O)C1=C(C)NC(=O)NC1c1ccc(C)o1 (centres unmarked) [Compound 11, Methyl 6-methyl-4-(5-methylfuran-2-yl)-2-oxo-1,2,3,4-tetrahydropyrimidine-5-carboxylate]	77	386 ± 0.6	76.9	–
COC(=O)C1=C(C)NC(=O)NC1c1ccc(O)cc1 (centres unmarked) [Compound 13, Methyl 4-(4-hydroxyphenyl)-6-methyl-2-oxo-1,2,3,4-tetrahydropyrimidine-5-carboxylate]	72	448.9 ± 4.1	56.2	–
COC(=O)C1=C(C)NC(=O)NC1c1ccc(OC)cc1F (centres unmarked) [Compound 14, Methyl 4-(2-fluoro-4-methoxyphenyl)-6-methyl-2-oxo-1,2,3,4-tetrahydropyrimidine-5-carboxylate]	71	397.1 ± 0.1	68.4	–
COC(=O)C1=C(C)NC(=O)NC1c1cccc(O)c1 (centres unmarked) [Compound 15, Methyl 4-(3-hydroxyphenyl)-6-methyl-2-oxo-1,2,3,4-tetrahydropyrimidine-5-carboxylate]	–	–	38.9	–
COC(=O)C1=C(C)NC(=O)NC1c1ccc(F)c(OC)c1 (centres unmarked) [Compound 16, Methyl 4-(4-fluoro-3-methoxyphenyl)-6-methyl-2-oxo-1,2,3,4-tetrahydropyrimidine-5-carboxylate]	–	–	47.8	–
COC(=O)C1=C(C)NC(=O)NC1c1cc(OC)ccc1OC (centres unmarked) [Compound 17, Methyl 4-(2,5-dimethoxyphenyl)-6-methyl-2-oxo-1,2,3,4-tetrahydropyrimidine-5-carboxylate]	–	–	46.5	–
COC(=O)C1=C(C)NC(=O)NC1c1c(Cl)cccc1Cl (centres unmarked) [Compound 18, Methyl 4-(2,6-dichlorophenyl)-6-methyl-2-oxo-1,2,3,4-tetrahydropyrimidine-5-carboxylate]	–	–	-15.4	TP inhibitory activity (in words) [1]: inactive
COC(=O)C1=C(C)NC(=O)NC1c1ccc(C(C)C)cc1 (centres unmarked) [Compound 19, Methyl 4-(4-isopropylphenyl)-6-methyl-2-oxo-1,2,3,4-tetrahydropyrimidine-5-carboxylate]	–	–	-18.5	–
COC(=O)C1=C(C)NC(=O)NC1c1cccc(OC)c1OC (centres unmarked) [Compound 20, Methyl 4-(2,3-dimethoxyphenyl)-6-methyl-2-oxo-1,2,3,4-tetrahydropyrimidine-5-carboxylate]	62	414.7 ± 1.6	67.8	–
COC(=O)C1=C(C)NC(=O)NC1CC(C)C (centres unmarked) [Compound 21, Methyl 4-isobutyl-6-methyl-2-oxo-1,2,3,4-tetrahydropyrimidine-5-carboxylate]	55	345.4 ± 0.5	90.7	–
COC(=O)C1=C(C)NC(=O)NC1c1cc(Br)c(OC)c(OC)c1 (centres unmarked) [Compound 22, Methyl 4-(3-bromo-4,5-dimethoxyphenyl)-6-methyl-2-oxo-1,2,3,4-tetrahydropyrimidine-5-carboxylate]	76	394 ± 4.3	61.9	–
COC(=O)C1=C(C)NC(=O)NC1c1ccc(OC)c(OCc2ccccc2)c1 (centres unmarked) [Compound 23, Methyl 4-(3-(benzyloxy)-4-methoxyphenyl)-6-methyl-2-oxo-1,2,3,4-tetrahydropyrimidine-5-carboxylate]	–	–	7.5	–
COC(=O)C1=C(C)NC(=O)NC1c1cccs1 (centres unmarked) [Compound 27, Methyl 6-methyl-2-oxo-4-(thiophen-2-yl)-1,2,3,4-tetrahydropyrimidine-5-carboxylate]	–	–	47.1	–
COC(=O)C1=C(C)NC(=O)NC1c1cccc(OCc2ccccc2)c1 (centres unmarked) [Compound 31, Methyl 4-(3-(benzyloxy)phenyl)-6-methyl-2-oxo-1,2,3,4-tetrahydropyrimidine-5-carboxylate]	–	–	-41.9	–
COC(=O)C1=C(C)NC(=O)NC1c1ccccc1F (centres unmarked) [Compound 35, Methyl 4-(2-fluorophenyl)-6-methyl-2-oxo-1,2,3,4-tetrahydropyrimidine-5-carboxylate]	–	–	9.6	TP inhibitory activity (in words) [1]: activity was lost
COC(=O)C1=C(C)NC(=O)NC1c1ccccc1OCc1ccccc1 (centres unmarked) [Compound 36, Methyl 4-(2-(benzyloxy)phenyl)-6-methyl-2-oxo-1,2,3,4-tetrahydropyrimidine-5-carboxylate]	–	–	5.3	–
COC(=O)C1=C(C)NC(=O)NC1c1ccc(Cl)cc1Cl (centres unmarked) [Compound 39, Methyl 4-(2,4-dichlorophenyl)-6-methyl-2-oxo-1,2,3,4-tetrahydropyrimidine-5-carboxylate]	–	–	-1.8	TP inhibitory activity (in words) [1]: inactive
C[C@@H]1C[C@@H]([C@H](O)CC2CC(=O)NC(=O)C2)C(=O)[C@@H](C)C1 [Cycloheximide, reference compound]	30	–	–	IC50 at 48 h (MTT cytotoxicity assay; read-out: Cytotoxicity Studies IC50 ± SD): 0.8 ± 0.2 µM
N=C1CCCN1Cc1[nH]c(=O)[nH]c(=O)c1Cl [Tipiracil-HCl, reference compound]	–	–	–	inhibition at 500 µM ([1]; pH 7, read-out: Thymidine Phosphorylase Inhibitory Activity % Inhibition, E. coli TP): 92%
